Source: patent US11000033B2, “Ketone or oxime compound, and herbicide” (NISSAN CHEMICAL CORPORATION, priority 2014, dated 2021)

What was measured:
Assay type in all cases: in vivo
Settings in all cases: 320 g/ha, 3 weeks after application
Digitaria ciliaris = experiment: Test Example 5: herbicidal effect by foliage application, plastic box (symbol F)
Description: (§1) Herbicidal Effect Test by Foliage Application
(§2) Sterilized diluvial soil was placed in a plastic box having a length of 21 cm, a width of 13 cm, and a depth of 7 cm. Each of the seeds of Digitaria ciliaris, Setaria viridis, Echinochloa crus-galli var. crus-galli, Avena fatua, Alopecurus myosuroides, Lolium multiflorum Lam., Apera spica-venti, Abutilon theophrasti, Amaranthus retroflexus, Chenopodium album, Stellaria media, Galium spurium, Veronica persica, corn, soybean, rice plant, wheat, beet, and rapeseed was sowed in a spot-like manner and was covered with the soil of a thickness of about 1.5 cm. Thereafter, the plants were grown in the greenhouse of 25° C. to 30° C. After the plants were grown for 14 days, the emulsion agent of the compound of the present invention prepared in accordance with Formulation Example 2 was diluted with water so as to be a predetermined herbicide amount and the diluted emulsion agent was uniformly applied to a foliage part with a small-size spray. 3 weeks later from the herbicide application, the effect to each plant was investigated in accordance with the criteria of Test Example 1.

Setaria viridis = experiment: Test Example 5: herbicidal effect by foliage application, plastic box (symbol G)
Description: as §1, §2

Avena fatua = experiment: Test Example 5: herbicidal effect by foliage application, plastic box (symbol I)
Description: as §1, §2

Alopecurus myosuroides = experiment: Test Example 5: herbicidal effect by foliage application, plastic box (symbol J)
Description: as §1, §2

Lolium multiflorum Lam. = experiment: Test Example 5: herbicidal effect by foliage application, plastic box (symbol K)
Description: as §1, §2

Abutilon theophrasti = experiment: Test Example 5: herbicidal effect by foliage application, plastic box (symbol M)
Description: as §1, §2

Amaranthus retroflexus = experiment: Test Example 5: herbicidal effect by foliage application, plastic box (symbol N)
Description: as §1, §2

Chenopodium album = experiment: Test Example 5: herbicidal effect by foliage application, plastic box (symbol O)
Description: as §1, §2

Stellaria media = experiment: Test Example 5: herbicidal effect by foliage application, plastic box (symbol P)
Description: as §1, §2

Galium spurium = experiment: Test Example 5: herbicidal effect by foliage application, plastic box (symbol Q)
Description: as §1, §2

Veronica persica = experiment: Test Example 5: herbicidal effect by foliage application, plastic box (symbol R)
Description: as §1, §2

corn = experiment: Test Example 5: effect on crop by foliage application, plastic box (symbol c)
Description: as §1
(§3) Sterilized diluvial soil was placed in a plastic box having a length of 21 cm, a width of 13 cm, and a depth of 7 cm. Each of the seeds of Digitaria ciliaris, Setaria viridis, Echinochloa crus-galli var. crus-galli, Avena fatua, Alopecurus myosuroides, Lolium multiflorum Lam., Apera spica-venti, Abutilon theophrasti, Amaranthus retroflexus, Chenopodium album, Stellaria media, Galium spurium, Veronica persica, corn, soybean, rice plant, wheat, beet, and rapeseed was sowed in a spot-like manner and was covered with the soil of a thickness of about 1.5 cm. Thereafter, the plants were grown in the greenhouse of 25° C. to 30° C.

soybean = experiment: Test Example 5: effect on crop by foliage application, plastic box (symbol d)
Description: as §1, §3

rice plant = experiment: Test Example 5: effect on crop by foliage application, plastic box (symbol b)
Description: as §1, §3

wheat = experiment: Test Example 5: effect on crop by foliage application, plastic box (symbol e)
Description: as §1, §3

beet = experiment: Test Example 5: effect on crop by foliage application, plastic box (symbol f)
Description: as §1, §3

rapeseed = experiment: Test Example 5: effect on crop by foliage application, plastic box (symbol g)
Description: as §1, §3

CON=C(C)CC1CC(OC)=C(c2c(C)cc(-c3ccc(SC)cc3)cc2C)C1=O (mixture of isomers) [6-021]
F: Digitaria ciliaris, herbicidal effect grade (Digitaria ciliaris): 0 (Herbicidal ratio of 5% or lower (almost no effect))
G: Setaria viridis, herbicidal effect grade (Setaria viridis): 3 (Herbicidal ratio of 40% or higher and lower than 70%)
I: Avena fatua, herbicidal effect grade (Avena fatua): 1 (Herbicidal ratio of 5% or higher and lower than 20%)
J: Alopecurus myosuroides, herbicidal effect grade (Alopecurus myosuroides): 3 (Herbicidal ratio of 40% or higher and lower than 70%)
K: Lolium multiflorum Lam., herbicidal effect grade (Lolium multiflorum Lam.): 5 (Herbicidal ratio of 90% or more (almost completely withered))
M: Abutilon theophrasti, herbicidal effect grade (Abutilon theophrasti): 0 (Herbicidal ratio of 5% or lower (almost no effect))
N: Amaranthus retroflexus, herbicidal effect grade (Amaranthus retroflexus): 0 (Herbicidal ratio of 5% or lower (almost no effect))
O: Chenopodium album, herbicidal effect grade (Chenopodium album): 0 (Herbicidal ratio of 5% or lower (almost no effect))
P: Stellaria media, herbicidal effect grade (Stellaria media): 0 (Herbicidal ratio of 5% or lower (almost no effect))
Q: Galium spurium, herbicidal effect grade (Galium spurium): 0 (Herbicidal ratio of 5% or lower (almost no effect))
R: Veronica persica, herbicidal effect grade (Veronica persica): 0 (Herbicidal ratio of 5% or lower (almost no effect))
c: corn, effect on crop grade (corn): 0 (Herbicidal ratio of 5% or lower (almost no effect))
d: soybean, effect on crop grade (soybean): 0 (Herbicidal ratio of 5% or lower (almost no effect))
b: directly sowed rice plant, effect on crop grade (rice plant): 0 (Herbicidal ratio of 5% or lower (almost no effect))
e: wheat, effect on crop grade (wheat): 0 (Herbicidal ratio of 5% or lower (almost no effect))
f: beet, effect on crop grade (beet): 0 (Herbicidal ratio of 5% or lower (almost no effect))
g: rapeseed, effect on crop grade (rapeseed): 3 (Herbicidal ratio of 40% or higher and lower than 70%)
